# Experimental data reported in patent US11761966B2, “Nourin gene-based RNA molecular network: novel early diagnostic and prognostic biomarkers for coronary artery disease, unstable angina, STEMI/NSTEMI and heart failure” (Nour Heart, Inc., priority 2018, dated 2023).
# “Also recorded” adds a separate entry of the source. Where no end group is shown, it is not given here. The star is where a group is joined. For = O=C*
# Legend:
# Swine Flu H1N1 virus = settings: mice inoculated with Swine Flu H1N1 virus; cited from earlier work
# Nourin = settings: in-vitro; cited from earlier work
# miR-137 [1] = settings: spontaneously hypertensive rats; cited from earlier work
# mRNA-FTHL-17 = assay: qPCR of Nourin RNA network in ISO rat model of HF: serum mRNA-FTHL-17 gene expression; assay type: in vivo; settings: for reduction of mRNA-FTHL-17 gene expression: serum day 14
# Method: (§1) The standard quantitative real time PCR (qPCR) molecular assay described in Example 6 was used to determine the levels of Nourin RNA network in the ISO rat model of ischemia-induced HF. It was tested if the hypothesis that the levels of gene expression of Nourin molecular RNA Network (miR-137, miRNA-106b, mRNA FTHL-17, mRNA ANAPC11 and lncR-CTB89H12.4) will be elevated in HF rats, and that CCrP treatment will reduce their gene expression of Nourin molecular RNA Network in a dose-response manner.
# (§2) After 14 days, gene expression of Nourin-dependent miR-137 and miR-106b and their signaling pathways mRNA-FTLH-17, mRNA-ANAPC11 and lncR-CTB89H12.4 were evaluated by qRT-PCR (Example 6).
# rat grafted hearts = assay: In vivo rat syngeneic abdominal heterotopic heart transplantation after 22-24 hours cold storage; settings: after 22 and 24 hours of cold storage; control poor
# Method: (§3) Furthermore, there was a higher weight gain in control hearts (UW) after 6 hours of cold storage compared to the CCrP-treated hearts (HH). […] The observed reduction of heart edema in the CCrP hearts (HH) is crucial for the restoration of contractile function during reperfusion at the end of 6-hour storage. […] Lewis rats were used for both the donors and recipients to avoid immunologic rejection. This approach allowed a focus at determining the in vivo cardioprotective benefits of CCrP treatment and to evaluate whether CCrP would restore cardiac contractility after prolonged cold storage and increase graft survival. Echocardiography (ECHO) analyses were conducted 2 hours after transplantation at day 0 and at day 3 before sacrifice.
# Saline-treated control donor rats were evidently dilated with an increase in the sizes of both ventricles and atria. Additionally, the color was mildly cyanotic and the contractility was poor and irregular in rhythm. In most control grafted hearts, their heart beating score ranged from 1+ to 2+ at day 0 and day 3. Protection was shown in most of CCrP grafted hearts at day 3 where the myocardial color and the consistency of the degree of contractility were almost the same as day zero. […] Most the control grafted hearts, on the other hand, continued to show evidence of ischemia as well as loss of wall thickness and cardiac mass by day 0 and day 3 (FIG. 43).
# ISO rat model of HF = assay: Standard isoproterenol (ISO) rat model of heart failure: CK-MB, ejection fraction, collagen, fibrosis, heart weight, physical activity; assay type: in vivo; set-up: heart weight: unit not given here; settings: for Ejection Fraction (EF %) by ECHO: after 14 days
# miR-106b = assay: qPCR of Nourin RNA network in ISO rat model of HF: serum miR-106b gene expression; assay type: in vivo; settings: for reduction of miR-106b gene expression: serum day 14
# Method: as §1, §2
# miR-137 [2] = assay: qPCR of Nourin RNA network in ISO rat model of HF: serum miR-137 gene expression; assay type: in vivo; settings: for reduction of miR-137 gene expression: serum day 14, vs ISO/saline
# Method: as §1, §2
# lncR-CTB89H12.4 = assay: qPCR of Nourin RNA network in ISO rat model of HF: serum lncR-CTB89H12.4 gene expression; assay type: in vivo; settings: for increase of lncR-CTB89H12.4 gene expression: serum day 14
# Method: as §1, §2
# mRNA-ANAPC11 = assay: qPCR of Nourin RNA network in ISO rat model of HF: serum mRNA-ANAPC11 gene expression; assay type: in vivo; settings: for reduction of mRNA-ANAPC11 gene expression: serum day 14
# Method: as §1, §2
# [3] = Crossing of the blood-brain barrier
# hearts in cold storage = assay: Heart cold storage for 6 hours in HH solution (UW+CCrP) vs UW
# Method: as §3
# rabbit skin = settings: within the first 30 minutes, neutrophil infiltration; cited from earlier work
# [4] = test system: patients with ST-Segment Elevation Myocardial Infarction; settings: EMBRACE STEMI trial; cited from earlier work
# HF patients = settings: small study, wide confidence intervals; cited from earlier work
# Method for healthy rats: After 14 days, ECHO analysis for Ejection Fraction (EF %) was conducted, as well as heart weight (mg), histologic analysis for fibrosis and deposition of collagen. Mean±S.E.M and one-way ANOVA analysis were used.
compound,measurement,setting,value
C/C=C/C[C@@H](C)[C@@H](O)[C@H]1C(=O)N[C@@H](CC)C(=O)N(C)CC(=O)N(C)[C@@H](CC(C)C)C(=O)N[C@@H](C(C)C)C(=O)N(C)[C@@H](CC(C)C)C(=O)N[C@@H](C)C(=O)N[C@H](C)C(=O)N(C)[C@@H](CC(C)C)C(=O)N(C)[C@@H](CC(C)C)C(=O)N(C)[C@H](C(C)C)C(=O)N1C [Cyclosporin H],lung inflammation,Swine Flu H1N1 virus,significantly reduced lung inflammation
same,Nourin activity,Nourin,inhibited Nourin activity
C[C@H](CS)C(=O)N1CCC[C@H]1C(=O)O [captopril],miR-137 expression,miR-137 [1],inhibit miR-137 expression
Cyclocreatine Phosphate [CCrP],reduction of mRNA-FTHL-17 gene expression,mRNA-FTHL-17; ISO/CCrP 0.4 g/kg,16%
same,reduction of mRNA-FTHL-17 gene expression,mRNA-FTHL-17; ISO/CCrP 0.8 g/kg,30%
same,reduction of mRNA-FTHL-17 gene expression,mRNA-FTHL-17; ISO/CCrP 1.2 g/kg,75%
same,mRNA-FTHL-17 gene expression (Mean),"mRNA-FTHL-17; healthy rats, CCrP 0.8 g/kg, saline-treated healthy rats 1.01",0.67
same,general overall survival of the cardiac tissue of grafted hearts,rat grafted hearts,very good to excellent
same,Ejection Fraction (EF %) by ECHO,ISO rat model of HF; ISO/CCrP 0.4 g/kg,54%
same,collagen %,"ISO rat model of HF; ISO/CCrP 0.4 g/kg, day 14",3.3%
same,heart weight,"ISO rat model of HF; ISO/CCrP 0.4 g/kg, day 14, ISO 0.8 mg, normal saline 0.6 mg",0.7
same,Serum CK-MB,"ISO rat model of HF; ISO/CCrP 0.8 g/kg, 24 hours after last ISO injection, ISO 206.20±6.25, control saline 82.60±5.2",70.67±5.79 U/L
same,heart weight,"ISO rat model of HF; ISO/CCrP 0.8 g/kg, day 14",0.6
same,Ejection Fraction (EF %) by ECHO,"ISO rat model of HF; ISO/CCrP 0.8 g/kg/day, ISO 36, control saline 64",64%
same,myocardial fibrosis (Masson's trichrome),"ISO rat model of HF; ISO/CCrP 0.8 g/kg/day, day 14","very low fibrosis; also recorded: delicate fibrous tissue between the myocardial bundles, almost similar to healthy normal rats"
same,collagen %,"ISO rat model of HF; ISO/CCrP 0.8 g/kg/day, day 14, ISO/saline 4.1",0.7%
same,Ejection Fraction (EF %) by ECHO,ISO rat model of HF; ISO/CCrP 1.2 g/kg,59%
same,collagen %,"ISO rat model of HF; ISO/CCrP 1.2 g/kg, day 14",0.2%
same,heart weight,"ISO rat model of HF; ISO/CCrP 1.2 g/kg, day 14",0.7
same,physical activity,"ISO rat model of HF; ISO/CCrP group (n=5), day 14 before sacrifice",high physical activity
same,reduction of miR-106b gene expression,miR-106b; ISO/CCrP 0.4 g/kg,18%
same,reduction of miR-106b gene expression,miR-106b; ISO/CCrP 0.8 g/kg,44%
same,reduction of miR-106b gene expression,miR-106b; ISO/CCrP 1.2 g/kg,72%
same,miR-106b gene expression (Mean),"miR-106b; healthy rats, CCrP 0.8 g/kg, saline-treated healthy rats 4.62",5.62
same,reduction of miR-137 gene expression,miR-137 [2]; ISO/CCrP 0.4 g/kg,33%
same,reduction of miR-137 gene expression,miR-137 [2]; ISO/CCrP 0.8 g/kg,75%
same,reduction of miR-137 gene expression,miR-137 [2]; ISO/CCrP 1.2 g/kg,68%
same,miR-137 gene expression (Mean),"miR-137 [2]; healthy rats, CCrP 0.8 g/kg, saline-treated healthy rats 1.15",1.60
same,increase of lncR-CTB89H12.4 gene expression,lncR-CTB89H12.4; ISO/CCrP 0.4 g/kg,1.33 fold
same,increase of lncR-CTB89H12.4 gene expression,lncR-CTB89H12.4; ISO/CCrP 0.8 g/kg,7.66 fold
same,increase of lncR-CTB89H12.4 gene expression,lncR-CTB89H12.4; ISO/CCrP 1.2 g/kg,14.33 fold
same,lncR-CTB89H12.4 gene expression (Mean),"lncR-CTB89H12.4; healthy rats, CCrP 0.8 g/kg, saline-treated healthy rats 1.1",1.3
same,reduction of mRNA-ANAPC11 gene expression,mRNA-ANAPC11; ISO/CCrP 0.4 g/kg,18%
same,reduction of mRNA-ANAPC11 gene expression,mRNA-ANAPC11; ISO/CCrP 0.8 g/kg,31%
same,reduction of mRNA-ANAPC11 gene expression,mRNA-ANAPC11; ISO/CCrP 1.2 g/kg,70%
same,mRNA-ANAPC11 gene expression (Mean),"mRNA-ANAPC11; healthy rats, CCrP 0.8 g/kg, saline-treated healthy rats 1.0",0.9
same,myocardial fibrosis (Masson's trichrome),"healthy rats; control healthy rats, CCrP 0.8 g/kg/day, day 14",no fibrosis
same,"toxicity in heart, liver and renal function","healthy rats; healthy rats, CCrP 0.8 g/kg daily for 14 days",no toxicity; also recorded: no observed toxic effect
same,"levels of liver enzyme ALT, kidney Creatinine and Urea, CCrP vs saline","healthy rats; normal rats, CCrP 0.8 g/kg IP daily for 14 days",no significant difference; also recorded: no significance difference
same,heart weight,"healthy rats; normal rats, CCrP 0.8 g/kg daily for 14 days",0.6
same,collagen %,"healthy rats; normal rats, CCrP 0.8 g/kg daily for 14 days, control saline 0.1",0.1%
same,Ejection Fraction (EF %) by ECHO,"healthy rats; normal rats, CCrP 0.8 g/kg daily for 14 days, control saline 64",61%
same,crossing of the blood-brain barrier,[3],crosses blood brain barrier
same,heart weight after cold storage,"hearts in cold storage; 6 hours cold storage, HH solution (UW+CCrP), control (UW) 0.31 gm",0.25 gm
same,recovery of contractile function,hearts in cold storage; CCrP treated-group (HH) vs saline control,significantly better
"Nourin: 3 KDa N-formyl peptide released by ischemic heart, inflammatory mediator (SEQ ID NO:15) (For-MIINHNLAAINSHRSPGADGNGGEAMPGGGR; listed as Homo sapiens)",inflammatory response in skin,rabbit skin,acute inflammatory response
elamipretide,primary or secondary outcomes,[4],did not improve the primary or secondary outcomes
same,left ventricular volumes,HF patients,reduce left ventricular volumes
